13 compounds from patent US8101649B2, “N-acylhydrazone derivatives useful as modulators of nicotinic acetylcholine receptors” (Neurosearch A/S, priority 2007, dated 2012) can be followed below.

Tested on in the first data set: not given
Experiment: not given
Details: not given
`O=C(CCc1c[nH]c2ccccc12)N/N=C1\CCCc2ccccc21` [Compound 3L, 3-(1H-Indol-3-yl)-propionic acid [3,4-dihydro-2H-naphthalen-(1E)-ylidene]-hydrazide]: the melting point (commonly the temperature of the solid-liquid transition) lay within 119.3 to 120.2 °C.
Consider `O=C(CCc1c[nH]c2ccccc12)N/N=C/c1cccs1` [Compound 3F, 3-(1H-Indol-3-yl)-propionic acid [1-thiophen-2-yl-meth-(E)-ylidene]-hydrazide], for which the melting point is 146.5 to 149.4 °C.
Regarding `O=C(CCc1c[nH]c2ccccc12)N/N=C/c1ccsc1` [Compound 3D, 3-(1H-Indol-3-yl)-propionic acid [1-thiophen-3-yl-meth-(E)-ylidene]-hydrazide], the melting point fell in the range of 145.5 to 148.1 °C.
`O=C(CCc1c[nH]c2ccc(F)cc12)N/N=C/c1ccccc1` [Compound 3I, 3-(5-Fluoro-1H-indol-3-yl)-propionic acid [1-phenyl-meth-(E)-ylidene]-hydrazide] registered a melting point of 171.2 to 173.9 °C.
With `O=C(CCc1c[nH]c2ccc(F)cc12)N/N=C/c1ccccc1F` [Compound 3J, 3-(5-Fluoro-1H-indol-3-yl)-propionic acid [1-(2-fluoro-phenyl)-meth-(E)-ylidene]-hydrazide], the melting point was in the range of 132.8 to 134 °C.
`O=C(CCc1c[nH]c2ccccc12)N/N=C/c1ccccc1F` [Compound 3E, 3-(1H-Indol-3-yl)-propionic acid [1-(2-fluoro-phenyl)-meth-(E)-ylidene]-hydrazide] came in with a melting point of 118 to 123 °C.
Compound `O=C(CCc1c[nH]c2ccccc12)N/N=C/c1ccccc1` [Compound 3A, 3-(1H-Indol-3-yl)-propionic acid [1-phenyl-meth-(E)-ylidene]-hydrazide] displayed a melting point of 169.8 to 171.2 °C.
With `O=C(CCc1c[nH]c2ccccc12)N/N=C/c1ccc(Cl)cc1` [Compound 3G, 3-(1H-Indol-3-yl)-propionic acid [1-(4-chloro-phenyl)-meth-(E)-ylidene]-hydrazide], the melting point was in the range of 201.5 to 202.5 °C.
On the same count and under the same terms, the figure for `C/C(=N\NC(=O)CCc1c[nH]c2ccccc12)c1ccccc1` [Compound 3K, 3-(1H-Indol-3-yl)-propionic acid [1-phenyl-eth-(E)-ylidene]-hydrazide] is 156.2 to 158.2 °C.
The compound `CC1=C/C(=N/NC(=O)CCc2c[nH]c3ccccc23)c2ccccc2C1=O` [Compound 3N, 3-(1H-Indol-3-yl)-propionic acid [3-methyl-4-oxo-4H-naphthalen-(1Z)-ylidene]-hydrazide] yielded a melting point of 248.6 to 249.5 °C.
In the case of `COc1ccc(/C=N/NC(=O)CCc2c[nH]c3ccccc23)cc1` [Compound 3B, 3-(1H-Indol-3-yl)-propionic acid [1-(4-methoxy-phenyl)-meth-(E)-ylidene]-hydrazide], the melting point was in the range of 168.3 to 169.7 °C.
On to `O=C(CCc1c[nH]c2ccc(F)cc12)N/N=C/c1ccc(F)cc1` [Compound 3M, 3-(5-Fluoro-1H-indol-3-yl)-propionic acid [1-(4-fluoro-phenyl)-meth-(E)-ylidene]-hydrazide], for which the melting point fell in the range of 213.8 to 215.3 °C.

The next data set deals with T1, wild-type nAChR α7 receptors (Homo sapiens, UniProt P36544).
T1 construct: expressed in transfected cells; host or cells: Xenopus laevis oocytes
T1 sequence (P36544 23-502): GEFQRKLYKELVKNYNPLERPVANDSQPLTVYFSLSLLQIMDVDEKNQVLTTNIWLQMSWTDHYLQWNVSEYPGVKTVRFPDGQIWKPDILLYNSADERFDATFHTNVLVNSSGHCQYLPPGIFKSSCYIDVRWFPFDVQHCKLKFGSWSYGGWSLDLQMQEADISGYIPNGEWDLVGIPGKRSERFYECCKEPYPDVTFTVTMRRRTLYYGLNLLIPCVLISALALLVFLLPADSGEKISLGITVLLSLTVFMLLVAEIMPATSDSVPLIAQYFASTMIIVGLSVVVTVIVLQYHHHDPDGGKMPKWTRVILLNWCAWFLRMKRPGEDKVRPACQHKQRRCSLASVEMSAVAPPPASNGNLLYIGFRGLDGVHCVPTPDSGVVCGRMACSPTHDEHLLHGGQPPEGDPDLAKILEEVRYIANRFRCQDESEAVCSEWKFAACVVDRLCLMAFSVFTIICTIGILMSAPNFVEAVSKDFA
Put plainly: Positive modulation of acetylcholine-induced currents at nAChR α7 receptors expressed in Xenopus laevis oocytes (two-electrode voltage clamp). The class given is cell-based. To be noted: 100 μM acetylcholine; (test-control)/control*100%; fitted to the sigmoidal logistic equation. The procedure: In this example the positive modulation of wild-type nAChR α7 receptors by Compound 3 (FIGS. 1A and 1B) was determined using nAChR α7 receptors heterologously expressed in Xenopus laevis oocytes.
The electrical current through the nAChR α7 channel was measured using conventional two-electrode voltage clamp and nAChR α7 currents were activated by applying pulses of agonist-containing solution onto the nAChR α7 expressing oocyte.
In brief, the oocytes were placed in a recording chambers and continuously superfused with an Oocyte Ringer (OR) solution containing 90 mM NaCl, 2.5 mM KCl, 2.5 mM CaCl2, 1 mM MgCl2 and 5 mM HEPES (pH adjusted to 7.4). The oocytes were clamped at −60 mV and currents were induced by applying 20 s pulses of 100 μM acetylcholine dissolved in OR. The intervals between the acetylcholine applications were 5 minutes, during which the oocytes were washed with OR. The first three applications were control applications to insure a constant response level of 100 μM acetylcholine.
The positive modulation in the presence of Compound 3 was calculated as (test-control)/control*100% and the concentration response curve for this positive modulation was fitted to the sigmoidal logistic equation: I=Imax/(1+(EC50/[compound])^n), where Imax represents the maximal modulation of the control response, EC50 is the concentration causing a half maximal response, and n is the slope coefficient.
In general terms: Two-electrode voltage clamp is typically applied to oocytes expressing channels or transporters.
As to `O=C(CCc1c[nH]c2ccccc12)N/N=C/c1ccc(F)cc1` [Compound 3, 3-(1H-Indol-3-yl)-propionic acid [1-(4-fluoro-phenyl)-meth-(E)-ylidene]-hydrazide], the “Imax (maximal modulation of the acetylcholine control response)” value is 140%.

The data set is the same for the next values; noted with them: 100 μM acetylcholine; oocytes clamped at −60 mV; 0.01-31.6 μM compound applied 30 s before and during acetylcholine; read-out: EC50 (concentration causing a half maximal response) for positive modulation of acetylcholine responses.
`O=C(CCc1c[nH]c2ccccc12)N/N=C/c1ccc(F)cc1` [Compound 3, 3-(1H-Indol-3-yl)-propionic acid [1-(4-fluoro-phenyl)-meth-(E)-ylidene]-hydrazide]: the EC50 worked out at 4.1 µM.

The data set is the same for the next values; noted with them: 0.01-31.6 μM compound with 100 μM acetylcholine.
As to `O=C(CCc1c[nH]c2ccccc12)N/N=C/c1ccc(F)cc1` [Compound 3, 3-(1H-Indol-3-yl)-propionic acid [1-(4-fluoro-phenyl)-meth-(E)-ylidene]-hydrazide], the “effect on acetylcholine-induced current amplitude” value is “robust increase”.
